Assay results: ChEMBL document CHEMBL1150925, “Gibbilimbols A-D, cytotoxic and antibacterial alkenylphenols from Piper gibbilimbum” (J Nat Prod, 1998)
≈ marks a conversion by molar mass, not a printed value. Calls of active or inactive are those of the source. The calls are words filed in the database; no cut-off is given here.

Assays:
[1] = Toxicity in Artemia salina; format: organism-based; details: in vivo, read-out: LD50 (the source's name)
[2] = test system: KB; test: Cytotoxicity against human KB cells; format: functional; details: read-out: ED50 (the source's name)
[3] = test system: Staphylococcus epidermidis; test: Antibacterial activity against Staphylococcus epidermidis at 60 ug/disk by paper disk diffusion technique; format: functional; details: read-out: IZ
[4] = test system: Bacillus cereus; test: Antibacterial activity against Bacillus cereus at 60 ug/disk by paper disk diffusion technique; format: functional; details: read-out: IZ
[5] = test system: Pseudomonas aeruginosa; test: Antibacterial activity against Pseudomonas aeruginosa at 60 ug/disk by paper disk diffusion technique; format: functional, organism-based
[6] = test system: Staphylococcus epidermidis; test: Antibacterial activity against Staphylococcus epidermidis after 24 hrs by broth microdilution method; format: functional
[7] = test system: Bacillus cereus; test: Antibacterial activity against Bacillus cereus after 24 hrs by broth microdilution method; format: functional

Structure (SMILES) | LC50 [1] | EC50 [2] | zone of inhibition at 60 µg/disc [3] | zone of inhibition at 60 µg/disc [4] | Activity [5] | MIC [6] | MIC [7]
CCCCCC/C=C/CCc1ccc(O)cc1 [GIBBILIMBOL B] | 4.9 µg/mL (≈ 21.1 µM) | 3.9 µg/mL (≈ 16.8 µM) | < 2 mm | < 2 mm | inactive | 2 µg/mL (≈ 8.61 µM) | 4 µg/mL (≈ 17.2 µM)
CCCCC/C=C/CCCc1ccc(O)cc1 [GIBBILIMBOL A] | 5.3 µg/mL (≈ 22.8 µM) | 4.4 µg/mL (≈ 18.9 µM) | < 2 mm | < 2 mm | inactive | 4 µg/mL (≈ 17.2 µM) | 4 µg/mL (≈ 17.2 µM)
CCCC/C=C/CCc1ccc(O)cc1 [GIBBILIMBOL D] | 5 µg/mL (≈ 24.5 µM) | 2.1 µg/mL (≈ 10.3 µM) | < 2 mm | < 2 mm | inactive | 2 µg/mL (≈ 9.79 µM) | 2 µg/mL (≈ 9.79 µM)
CCC/C=C/CCCc1ccc(O)cc1 [GIBBILIMBOL C] | 5.5 µg/mL (≈ 26.9 µM) | 7.8 µg/mL (≈ 38.2 µM) | < 2 mm | < 2 mm | inactive | 2 µg/mL (≈ 9.79 µM) | 2 µg/mL (≈ 9.79 µM)
O=C(N[C@H](CO)[C@H](O)c1ccc([N+](=O)[O-])cc1)C(Cl)Cl [CHLORAMPHENICOL] |  |  |  |  |  | 8 µg/mL (≈ 24.8 µM) | 4 µg/mL (≈ 12.4 µM)
